Assay results reported in patent US10507212B2, “Method for use of homopiperazinium compounds in the treatment of cancer” (UNIVERSITÉ LAVAL, priority 2014, dated 2019).
Structures can show the parent of a compound that is named as a salt. Where two headings read alike, the source gives them in different places.

Tests used:
[1] = system: A549 adenocarcinoma cell line; test: Cell proliferation assay, A549 (MTT)
Protocol: (§1) In vitro experiments were conducted on four cancer cell lines: the A549 adenocarcinoma cell line, the H520 squamous cell carcinoma the H82 small cell lung carcinoma and Calu 3 lung adenocarcinoma. The A549 tumor cells, were plated at a density of 1.5×10^4 cells per mL and let to adhere on 96-well microplates in F12K cell culture medium enriched with 10% fetal calf serum (FCS). The H520, H82 and Calu 3 tumor cells were plated at a density of 5×10^4 cells per mL in RPMI+10% FCS. After 24 h in culture, the medium was changed and cells were exposed to ASM-024 at concentrations ranging from 10^−7M to 10^−3M (FIGS. 1A-1C). After 3 and 6 days in culture, cell growth was quantified using the MTT colorimetric assay (M2128, Sigma) at 575-690 nm or the Cell Titer fluorescence assay (G8080, Promega) at 560/590 nm.
(§2) In an another set of experiments, a series of 16 other homopiperazinium compounds, in addition to ASM-024, were tested for their anti-proliferative effect on the four tumor cell lines described above after up to 6 days in culture at concentrations of 10^-7M to 10^-3M. (FIGS. 4A-4E) Cell growth was quantified using the MTT colorimetric assay for the A-549, H520 and Calu 3 cell lines and the CellTiter Fluorescence assay.for the H82 tumor cell line These are established method of determining viable cell number in proliferation studies.

[2] = system: H520 squamous cell carcinoma; test: Cell proliferation assay, H520 (MTT); type: cell-based
Protocol: as §1, §2

[3] = system: H82 small cell lung carcinoma; test: Cell proliferation assay, H82 (CellTiter fluorescence); type: cell-based; settings: for inhibition at 100 µM / inhibition at 300 µM / IC50: Homo sapiens; for inhibition at 100 µM / inhibition at 300 µM: read-out: % Inhibition of Cell Growth at day 3 compared to vehicle-treated cells
Protocol: as §1, §2

[4] = system: Calu 3 lung adenocarcinoma; test: Cell proliferation assay, Calu 3 (MTT); type: cell-based; settings: Homo sapiens
Protocol: as §1, §2

[5] = read-out: IC50 Day 3, A549, day 3 in culture
[6] = read-out: IC50 Day 6, A549, day 6 in culture
[7] = H520, day 3 in culture, read-out: IC50 Day 3
[8] = H520, day 6 in culture, read-out: IC50 Day 6
[9] = Homo sapiens, A549, 72 h, read-out: IC50 Day 3, A549, day 3 in culture
[10] = Homo sapiens, A549, 144 h, read-out: IC50 Day 6, A549, day 6 in culture
[11] = Homo sapiens, NCI-H520, 72 h, read-out: IC50 Day 3, H520, day 3 in culture
[12] = Homo sapiens, NCI-H520, 144 h, read-out: IC50 Day 6, H520, day 6 in culture
[13] = Homo sapiens, NCI-H520, 72 h, H520, day 3 in culture, read-out: IC50 Day 3
[14] = Homo sapiens, NCI-H520, 144 h, H520, day 6 in culture, read-out: IC50 Day 6
[15] = NCI-H82, 72 h, H82, day 3 in culture, read-out: IC50 Day 3
[16] = NCI-H82, 144 h, H82, day 6 in culture, read-out: IC50 Day 6
[17] = 72 h, Calu 3, day 3 in culture, read-out: IC50 Day 3
[18] = 144 h, Calu 3, day 6 in culture, read-out: IC50 Day 6
[19] = NCI-H82, 72 h, H82, day 3, 3 × 10^−4M
[20] = NCI-H82, 72 h, H82, day 3, 10^−4M
[21] = NCI-H82, 72 h, read-out: IC50 Day 3
[22] = NCI-H82, 144 h, read-out: IC50 Day 6

C[N+]1(C)CCCN(c2ccc(C(F)(F)F)cc2)CC1 [ASM-071, 4-Dimethyl-1-(4-trifluorophenyl)-homopiperazinium Iodide]
IC50 [1, 5]: 25 ± 15 µM | IC50 [1, 6]: 18 ± 9 µM | IC50 ([2]; read-out: IC50 Day 3, H520, day 3 in culture): 523 ± 292 µM | IC50 ([2]; read-out: IC50 Day 6, H520, day 6 in culture): 235 ± 179 µM

CC[N+]1(CC)CCCN(c2ccccc2)CC1.[I-] [ASM-009, 1,1-Diethyl-4-phenyl-homopiperazinium Iodide]
IC50 [1, 5]: 51 ± 6 µM | IC50 [1, 6]: 48 ± 25 µM | IC50 [2, 7]: 892 ± 98 µM | IC50 [2, 8]: 396 ± 147 µM | % Inhibition of Cell Growth at day 3 compared to vehicle-treated cells ([3]; H82, day 3, 3 × 10^−4M): 35% | % Inhibition of Cell Growth at day 3 compared to vehicle-treated cells ([3]; H82, day 3, 10^−4M): −12%

Cc1cccc(N2CCC[N+](C)(C)CC2)c1 (as salt: tosylate) [ASM-068, 4-Dimethyl-1-(3-methylphenyl)-homopiperazinium Tosylate]
melting point: 161.6 to 162.5 °C

CC[N+]1(C)CCCN(c2ccccn2)CC1 (centres unmarked) [ASM-017, 1-Ethyl-1-methyl-4-(2-pyridyl)-homopiperazinium Iodide]
IC50 [1, 9]: 89 ± 13 µM | IC50 [1, 10]: 65 ± 25 µM | IC50 [2, 11]: 953 ± 39 µM | IC50 [2, 12]: 469 ± 163 µM | inhibition at 100 µM ([3]; NCI-H82, 72 h): -26% | inhibition at 300 µM ([3]; NCI-H82, 72 h): -6%

CC[N+]1(CC)CCCN(c2ccc(O)cc2)CC1 [ASM-073, 1,1-Diethyl-4-(phenyl-4-hydroxy)-homopiperazinium tosylate]
IC50 [1, 9]: 119 ± 49 µM | IC50 [1, 10]: 161 ± 82 µM | IC50 [2, 11]: 187 ± 28 µM | IC50 [2, 12]: 148 ± 14 µM | inhibition at 100 µM ([3]; NCI-H82, 72 h): 100% | inhibition at 300 µM ([3]; NCI-H82, 72 h): 100%

C[N+]1(C)CCCN(c2ccc(C(F)(F)F)cc2)CC1 (as salt: iodide) [ASM-071, 4-Dimethyl-1-(4-trifluorophenyl)-homopiperazinium Iodide]
melting point: 224.3 to 225.4 °C

CC[N+]1(CC)CCCN(c2ccc(F)cc2)CC1 [ASM-049, 1,1-Diethyl-4-(4-fluorophenyl)-homopiperazinium Tosylate]
IC50 [1, 9]: 81 ± 74 µM | IC50 [1, 10]: 42 ± 34 µM | IC50 [2, 13]: > 700 µM | IC50 [2, 14]: 288 ± 61 µM | IC50 [3, 15]: 331 µM | IC50 [3, 16]: 252 µM | IC50 [4, 17]: 452 µM | IC50 [4, 18]: 109 µM

CC[N+]1(CC)CCCN(c2ccc(O)cc2)CC1 (as salt: tosylate) [ASM-073, 1,1-Diethyl-4-(phenyl-4-hydroxy)-homopiperazinium tosylate]
melting point: 144 to 145.5 °C

CC[N+]1(CC)CCCN(c2ccccc2)CC1.[Cl-] [ASM-022, 1,1-Diethyl-4-phenyl-homopiperazinium Chloride]
IC50 [1, 5]: 46 ± 7 µM | IC50 [1, 6]: 45 ± 32 µM | IC50 [2, 7]: > 700 µM | IC50 [2, 8]: 387 ± 178 µM | % Inhibition of Cell Growth at day 3 compared to vehicle-treated cells ([3]; H82, day 3, 3 × 10^−4M): 55% | % Inhibition of Cell Growth at day 3 compared to vehicle-treated cells ([3]; H82, day 3, 10^−4M): 23%

CC[N+]1(C)CCCN(c2ccccc2)CC1.[I-] (centres unmarked) (hydrate or solvate) [ASM-055, 1-Ethyl-1-Methyl-4-(phenyl)-homopiperazinium Tosylate]
melting point: 167.5 to 168.7 °C

C[N+]1(C)CCCN(c2ccccn2)CC1 [ASM-016, 1,1-Dimethyl-4-(2-pyridyl)-homopiperazinium Iodide]
IC50 [1, 9]: 90 ± 15 µM | IC50 [1, 10]: 58 ± 22 µM | IC50 [2, 13]: 415 ± 212 µM | IC50 [2, 14]: 180 ± 92 µM | inhibition at 300 µM [3, 19]: -6% | inhibition at 100 µM [3, 20]: -22%

CC[N+]1(CC)CCCN(c2ccccn2)CC1 [ASM-037, 1,1-Diethyl-4-(2-pyridyl)-homopiperazinium Tosylate]
IC50 [1, 9]: 146 ± 92 µM | IC50 [1, 10]: 112 ± 96 µM | IC50 [2, 13]: > 1000 µM | IC50 [2, 14]: 634 ± 124 µM | inhibition at 300 µM [3, 19]: 29% | inhibition at 100 µM [3, 20]: 10%

C[N+]1(C)[C@@H]2C[C@@H](OC(=O)C(O)(c3cccs3)c3cccs3)C[C@H]1[C@@H]1O[C@@H]12 [Tiotropium, reference compound]
cell proliferation / cell growth inhibition (in words) ([1]; A549, day 3 and day 6, text on figures): no significant cell growth inhibition | IC50 (in words) ([1]; A549, cell line not given): No IC50 could be calculated | cell proliferation / cell growth inhibition (in words) ([2]; H520, day 3 and day 6, text on figures): no significant cell growth inhibition | IC50 (in words) ([2]; H520, cell line not given): No IC50 could be calculated | cell proliferation / cell growth inhibition (in words) ([3]; H82, day 3 and day 6, text on figures): no significant cell growth inhibition | IC50 (in words) ([3]; H82, cell line not given): No IC50 could be calculated

CCC[N+]1(C)CCCN(c2ccccn2)CC1 (centres unmarked) [ASM-018, 1-Methyl-1-propyl-4-(2-pyridyl)-homopiperazinium Iodide]
IC50 [1, 9]: 136 ± 39 µM | IC50 [1, 10]: 82 ± 32 µM | IC50 [2, 13]: > 1000 µM | IC50 [2, 14]: 536 ± 101 µM | inhibition at 300 µM [3, 19]: 35% | inhibition at 100 µM [3, 20]: 15%

Cc1cccc(N2CCC[N+](C)(C)CC2)c1 [ASM-068, 4-Dimethyl-1-(3-methylphenyl)-homopiperazinium Tosylate]
IC50 [1, 9]: 36 ± 17 µM | IC50 [1, 10]: 20 ± 16 µM | IC50 [2, 11]: 580 ± 85 µM | IC50 [2, 12]: 233 ± 31 µM | IC50 [3, 21]: 298 µM | IC50 [3, 22]: 179 µM | IC50 ([4]; Calu-3, 72 h, read-out: IC50 Day 3): > 1000 µM | IC50 ([4]; Calu-3, 144 h, read-out: IC50 Day 6): 52 µM

CC[N+]1(CC)CCCN(c2ccccc2)CC1.[Br-] [ASM-021, 1,1-Diethyl-4-phenyl-homopiperazinium Bromide]
IC50 [1, 9]: 45 ± 12 µM | IC50 [1, 10]: 51 ± 39 µM | IC50 [2, 7]: > 1000 µM | IC50 [2, 14]: 369 ± 171 µM | % Inhibition of Cell Growth at day 3 compared to vehicle-treated cells ([3]; H82, day 3, 3 × 10^−4M): 59% | % Inhibition of Cell Growth at day 3 compared to vehicle-treated cells ([3]; H82, day 3, 10^−4M): 13%

C[N+]1(C)CCCN(c2ccc(C(F)(F)F)cc2)CC1 [ASM-058, 1,1-Dimethyl-4-(4-trifluoromethylphenyl)-homopiperazinium Tosylate]
IC50 [1, 9]: 22 ± 10 µM | IC50 [1, 10]: 27 ± 26 µM | IC50 [2, 11]: 356 ± 143 µM | IC50 [2, 12]: 210 ± 82 µM | IC50 [3, 21]: 472 µM | IC50 [3, 22]: 299 µM

C[N+]1(C)CCCN(c2ccc(C(F)(F)F)cc2)CC1 (as salt: tosylate) [ASM-058, 1,1-Dimethyl-4-(4-trifluoromethylphenyl)-homopiperazinium Tosylate]
melting point: 212.6 to 213.4 °C

C[N+]1(C)CCCN(c2ccccc2)CC1.[I-] [ASM-002, 1,1-dimethyl-4-phenylhomopiperazinium iodide]
IC50 [1, 9]: 40 ± 15 µM | IC50 [1, 10]: 38 ± 12 µM | IC50 [2, 11]: 323 ± 60 µM | IC50 [2, 12]: 170 ± 23 µM | melting point: 158 to 160 °C | inhibition at 100 µM ([3]; NCI-H82, 72 h): -15% | inhibition at 300 µM ([3]; NCI-H82, 72 h): 31%

CC(C)[N+]1(C)[C@@H]2CC[C@H]1C[C@@H](OC(=O)C(CO)c1ccccc1)C2 (some centres unmarked) [ipratropium, reference compound]
cytotoxic effect ([1]; A549, at 1000 μM): cytotoxic effect

CC[N+]1(C)CCCN(c2ccccc2)CC1 (centres unmarked) [ASM-055, 1-Ethyl-1-Methyl-4-(phenyl)-homopiperazinium Tosylate]
IC50 [1, 9]: 60 ± 26 µM | IC50 [1, 10]: 28 ± 15 µM | IC50 [2, 13]: 622 ± 211 µM | IC50 [2, 14]: 272 ± 65 µM | inhibition at 300 µM [3, 19]: 66% | inhibition at 100 µM [3, 20]: 36%

CC[N+]1(CC)CCCN(c2ccc(Cl)cc2)CC1 [ASM-048, 1,1-Diethyl-4-(4-chlorophenyl)-homopiperazinium Tosylate]
IC50 [1, 9]: 37 µM | IC50 [1, 10]: 15 µM | IC50 [2, 13]: 322 µM | IC50 [2, 14]: 169 µM | IC50 [3, 15]: 246 µM | IC50 [3, 16]: 176 µM | IC50 [4, 17]: 276 µM | IC50 [4, 18]: 86 µM
